Test results published in PubChem BioAssay AID1259407 (Chemical Carcinogenesis Research Information System (CCRIS), 2018).
Entries after “also recorded” stand apart in the source; their conditions may differ. Activity calls are given as the source filed them. The rule behind the calls is not given here.

Tested on: CCRIS mutagenicity, Ames/micronucleus/aberration tests
Test: CCRIS mutagenicity studies

OO
mutagenic call (End Point: IN VITRO CHROMOSOMAL ABERRATIONS, Test System: CHO CELLS, Metabolic Activation: NONE): active; positive (structural changes)
mutagenic call (End Point: IN VITRO CHROMOSOMAL ABERRATIONS, Test System: CHO-K1, Metabolic Activation: NONE): active; positive
mutagenic call (End Point: IN VITRO CHROMOSOMAL ABERRATIONS, Test System: SYRIAN HAMSTER EMBRYO (SHE) CELLS, Metabolic Activation: NONE): active; positive (structural changes)
mutagenic call (End Point: IN VITRO MICRONUCLEUS, Test System: CHL/IU CELLS, Metabolic Activation: NONE): active; positive
mutagenic call (End Point: IN VITRO MICRONUCLEUS, Test System: CHO CELLS, Metabolic Activation: RAT, LIVER, S-9, AROCLOR 1254): inactive; negative
mutagenic call (End Point: IN VITRO MICRONUCLEUS, Test System: HUMAN LYMPHOCYTES, Metabolic Activation: NONE): inactive; negative; main effect of h2o2 was necrosis
mutagenic call (End Point: In vitro micronucleus, Test System: Chinese hamster V79 cells, Metabolic Activation: None): active; positive (hibiscus tiliaceus l methanolic extract at doses above 0.010 mg/ml had
mutagenic call (End Point: In vitro micronucleus, Test System: Chinese hamster ovary (CHO) cells, Metabolic Activation: None): active; positive (lycopene (10, 25 and 50 um) significantly reduced the number of micron
mutagenic call (Test System: AMES SALMONELLA TYPHIMURIUM, Strain/Indicator: SB1106, Metabolic Activation: NONE, Method: PREINCUBATION): active; positive
mutagenic call (Test System: AMES SALMONELLA TYPHIMURIUM, Strain/Indicator: SB1106, Metabolic Activation: NONE, Method: STANDARD PLATE): active; positive
mutagenic call (Test System: AMES SALMONELLA TYPHIMURIUM, Strain/Indicator: SB1106P, Metabolic Activation: NONE, Method: PREINCUBATION): active; positive
mutagenic call (Test System: AMES SALMONELLA TYPHIMURIUM, Strain/Indicator: SB1106P, Metabolic Activation: NONE, Method: STANDARD PLATE): active; positive
mutagenic call (Test System: AMES SALMONELLA TYPHIMURIUM, Strain/Indicator: SB1111, Metabolic Activation: NONE, Method: PREINCUBATION): inactive; negative
mutagenic call (Test System: AMES SALMONELLA TYPHIMURIUM, Strain/Indicator: SB1111, Metabolic Activation: NONE, Method: STANDARD PLATE): active; positive
mutagenic call (Test System: AMES SALMONELLA TYPHIMURIUM, Strain/Indicator: TA92, Metabolic Activation: NONE, Method: PREINCUBATION): inactive; negative
mutagenic call (Test System: AMES SALMONELLA TYPHIMURIUM, Strain/Indicator: TA97, Metabolic Activation: NONE, Method: STANDARD PLATE): active; positive
mutagenic call (Test System: AMES SALMONELLA TYPHIMURIUM, Strain/Indicator: TA97, Metabolic Activation: RAT, LIVER, S-9, PHENOBARBITAL, Method: LIQUID INCUBATION): active; positive
mutagenic call (Test System: AMES SALMONELLA TYPHIMURIUM, Strain/Indicator: TA97, Metabolic Activation: RAT, LIVER, S-9, PHENOBARBITAL, Method: STANDARD PLATE): active; positive
mutagenic call (Test System: AMES SALMONELLA TYPHIMURIUM, Strain/Indicator: TA98, Metabolic Activation: NONE, Method: PREINCUBATION): inactive; negative
mutagenic call (Test System: AMES SALMONELLA TYPHIMURIUM, Strain/Indicator: TA98, Metabolic Activation: NONE, Method: STANDARD PLATE): inactive; negative
mutagenic call (Test System: AMES SALMONELLA TYPHIMURIUM, Strain/Indicator: TA98, Metabolic Activation: RAT, LIVER, S-9, AROCLOR 1254, Method: PREINCUBATION): inactive; negative
mutagenic call (Test System: AMES SALMONELLA TYPHIMURIUM, Strain/Indicator: TA98, Metabolic Activation: RAT, LIVER, S-9, AROCLOR 1254, Method: STANDARD PLATE): inactive; negative
mutagenic call (Test System: AMES SALMONELLA TYPHIMURIUM, Strain/Indicator: TA100, Metabolic Activation: NONE, Method: PREINCUBATION): inactive; negative
mutagenic call (Test System: AMES SALMONELLA TYPHIMURIUM, Strain/Indicator: TA100, Metabolic Activation: NONE, Method: STANDARD PLATE): active; positive
mutagenic call (Test System: AMES SALMONELLA TYPHIMURIUM, Strain/Indicator: TA100, Metabolic Activation: RAT, LIVER, S-9, AROCLOR 1254, Method: PREINCUBATION): inactive; negative
mutagenic call (Test System: AMES SALMONELLA TYPHIMURIUM, Strain/Indicator: TA100, Metabolic Activation: RAT, LIVER, S-9, AROCLOR 1254, Method: STANDARD PLATE): active; positive
mutagenic call (Test System: AMES SALMONELLA TYPHIMURIUM, Strain/Indicator: TA102, Metabolic Activation: RAT, LIVER, S-9, AROCLOR 1254, Method: PREINCUBATION): inactive; negative
mutagenic call (Test System: AMES SALMONELLA TYPHIMURIUM, Strain/Indicator: TA104, Metabolic Activation: NONE, Method: PREINCUBATION): active; positive
mutagenic call (Test System: AMES SALMONELLA TYPHIMURIUM, Strain/Indicator: TA104, Metabolic Activation: NONE, Method: STANDARD PLATE): active; positive
mutagenic call (Test System: AMES SALMONELLA TYPHIMURIUM, Strain/Indicator: TA1535, Metabolic Activation: NONE, Method: PREINCUBATION): inactive; negative
mutagenic call (Test System: AMES SALMONELLA TYPHIMURIUM, Strain/Indicator: TA1535, Metabolic Activation: NONE, Method: STANDARD PLATE): inactive; negative
mutagenic call (Test System: AMES SALMONELLA TYPHIMURIUM, Strain/Indicator: TA1535, Metabolic Activation: RAT, LIVER, S-9, AROCLOR 1254, Method: STANDARD PLATE): inactive; negative
mutagenic call (Test System: AMES SALMONELLA TYPHIMURIUM, Strain/Indicator: TA1537, Metabolic Activation: NONE, Method: STANDARD PLATE): inactive; negative
mutagenic call (Test System: AMES SALMONELLA TYPHIMURIUM, Strain/Indicator: TA1537, Metabolic Activation: RAT, LIVER, S-9, AROCLOR 1254, Method: STANDARD PLATE): inactive; negative
mutagenic call (Test System: AMES SALMONELLA TYPHIMURIUM, Strain/Indicator: TA1537, Metabolic Activation: RAT, LIVER, S-9, PHENOBARBITAL, Method: LIQUID INCUBATION): active; positive
mutagenic call (Test System: AMES SALMONELLA TYPHIMURIUM, Strain/Indicator: TA1537, Metabolic Activation: RAT, LIVER, S-9, PHENOBARBITAL, Method: STANDARD PLATE): active; positive
mutagenic call (Test System: AMES SALMONELLA TYPHIMURIUM, Strain/Indicator: TA1538, Metabolic Activation: NONE, Method: STANDARD PLATE): inactive; negative
mutagenic call (Test System: AMES SALMONELLA TYPHIMURIUM, Strain/Indicator: TA1538, Metabolic Activation: RAT, LIVER, S-9, AROCLOR 1254, Method: STANDARD PLATE): inactive; negative
mutagenic call (Test System: AMES SALMONELLA TYPHIMURIUM, Strain/Indicator: TA1975, Metabolic Activation: NONE, Method: PREINCUBATION): inactive; negative
mutagenic call (Test System: AMES SALMONELLA TYPHIMURIUM, Strain/Indicator: TA2638, Metabolic Activation: NONE, Method: STANDARD PLATE): active; positive
mutagenic call (Test System: AMES SALMONELLA TYPHIMURIUM, Strain/Indicator: TA2638A, Metabolic Activation: NONE, Method: STANDARD PLATE): active; positive
mutagenic call (Test System: AMES SALMONELLA TYPHIMURIUM, Strain/Indicator: YG3001, Metabolic Activation: NONE, Method: PREINCUBATION): inactive; negative
mutagenic call (Test System: AMES SALMONELLA TYPHIMURIUM, Strain/Indicator: YG3002, Metabolic Activation: NONE, Method: PREINCUBATION): inactive; negative
mutagenic call (Test System: AMES SALMONELLA TYPHIMURIUM, Strain/Indicator: YG3003, Metabolic Activation: NONE, Method: PREINCUBATION): active; positive
mutagenic call (Test System: Ames Salmonella typhimurium, Strain/Indicator: TA102, Metabolic Activation: None, Method: Preincubation): active; positive (decrease in mutagenicity when 0.99-15.90 mg/plate of chloroform extrac; also recorded: active; positive (dose related decrease in mutagenicity when 1.82-7.30 mg/plate of metha
mutagenic call (Test System: Ames Salmonella typhimurium, Strain/Indicator: TA102, Metabolic Activation: Rat, Liver, S-9, Aroclor 1254, Method: Preincubation): active; positive (decrease in mutagenicity when 0.99-15.90 mg/plate of chloroform extrac; also recorded: active; positive (decrease in mutagenicity when 0.46 or 0.91 mg/plate of methanol extrac
mutagenic call (Test System: CHINESE HAMSTER G10, Strain/Indicator: G10 (GPT)/6-THIOGUANINE, Metabolic Activation: NONE): inactive; negative
mutagenic call (Test System: CHINESE HAMSTER G12, Strain/Indicator: G12 (GPT)/6-THIOGUANINE, Metabolic Activation: NONE): active; positive
mutagenic call (Test System: CHINESE HAMSTER V79 CELLS, Strain/Indicator: V79 CELLS (HPRT)/6-THIOGUANINE, Metabolic Activation: NONE, Method: PREINCUBATION): inactive; negative
mutagenic call (Test System: CHINESE HAMSTER V-79, Strain/Indicator: V-79 (HPRT)/6-THIOGUANINE, Metabolic Activation: NONE): inactive; negative
mutagenic call (Test System: CHINESE HAMSTER V-79, Strain/Indicator: V-79/6-THIOGUANINE, Metabolic Activation: NONE, Method: FLASK ASSAY): inactive; negative
mutagenic call (Test System: CHINESE HAMSTER V-79, Strain/Indicator: V-79/6-THIOGUANINE, Metabolic Activation: NONE, Method: STANDARD PLATE): active; positive
mutagenic call (Test System: CHINESE HAMSTER V-79, Strain/Indicator: V-79/8-AZAGUANINE, Metabolic Activation: NONE): active; positive
mutagenic call (Test System: Chinese hamster ovary cells, Strain/Indicator: EM9 (HPRT)/6-Thioguanine, Metabolic Activation: None): active; positive
mutagenic call (Test System: E. COLI, Strain/Indicator: WP2 (PKM101), Metabolic Activation: NONE, Method: STANDARD PLATE): active; positive
mutagenic call (Test System: E. COLI, Strain/Indicator: WP2, Metabolic Activation: NONE, Method: STANDARD PLATE): inactive; negative
mutagenic call (Test System: E. COLI, Strain/Indicator: WP2, Metabolic Activation: RAT, LIVER, S-9, AROCLOR 1254, Method: STANDARD PLATE): inactive; negative
mutagenic call (Test System: E. COLI, Strain/Indicator: WP2 UVRA (PKM101), Metabolic Activation: NONE, Method: STANDARD PLATE): active; positive
mutagenic call (Test System: HCT116 COLON CANCER CELLS, Strain/Indicator: HCT116 CELLS (HPRT)/6-THIOGUANINE, Metabolic Activation: NONE, Method: PREINCUBATION): active; positive
mutagenic call (Test System: HUMAN T LYMPHOCYTES, Strain/Indicator: PRIMARY CULTURES (HPRT)/6-THIOGUANINE, Metabolic Activation: NONE, Method: PREINCUBATION): active; positive
mutagenic call (Test System: MOUSE LYMPHOMA, Strain/Indicator: L5178Y (TK+/TK-), Metabolic Activation: NONE, Method: SUSPENSION/PLATE): active; positive
mutagenic call (Test System: UDS HUMAN FIBROBLASTS, Strain/Indicator: THY INCORP (NON-S-PHASE), Metabolic Activation: NONE, Method: AUTORADIOGRAPHY): active; positive
mutagenic call (Test System: UDS HUMAN FIBROBLASTS, Strain/Indicator: THY INCORP, Metabolic Activation: NONE, Method: AUTORADIOGRAPHY): active; positive
